Assay results taken from ChEMBL document CHEMBL5380835, “Discovery of Clinically Used Octenidine as NRAS Repressor That Effectively Inhibits NRAS-Mutant Melanoma” (J Med Chem, 2023).
Blank lines part the entries; values can stand above or below the molecule they belong to. Active and inactive are the calls of the source. The rule behind the calls is not given here.

Columns and labels:
[1] = system: SK-MEL-2; assay: Synergistic cytotoxicity against human SK-MEL-2 cells expressing NRAS mutant assessed as combination index measured for 48 hrs in presence of LY3214996 by MTT assay; format: functional
[2] = system: SK-MEL-2; assay: Synergistic cytotoxicity against human SK-MEL-2 cells expressing NRAS mutant assessed as combination index measured for 48 hrs in presence of MEK-162 by MTT assay; format: functional
[3] = Binding affinity to NRAS RNA G-quadruplex 5'-r(UGUGGGAGGGGCGGGUCUGGG)-3' (unknown origin) assessed as decrease in TO fluorescence at 0.25 uM by TO displacement assay
[4] = Toxicity in BALB/c mouse xenografted with human SK-MEL-2 cells assessed as change in body weight at 1 mg/kg/day, ip administered for 30 days; format: organism-based; conditions: in vivo, 720 h, time 30 day
[5] = system: SK-MEL-2; assay: Cytotoxicity against human SK-MEL-2 cells overexpressing Tet-on NRAS Q61R assessed as cell growth inhibition in presence of doxycycline; format: functional, cell-based
[6] = system: SK-MEL-2; assay: Antiproliferative activity against human SK-MEL-2 cells assessed as cell growth inhibition incubated for 24 hrs by EdU assay; format: functional, cell-based; conditions: SK-MEL-2, 24 h
[7] = system: SK-MEL-2; assay: Antiproliferative activity against human SK-MEL-2 cells assessed as cell growth inhibition incubated for 48 hrs by EdU assay; format: functional, cell-based; conditions: SK-MEL-2, 48 h
[8] = Disruption of DHX36/NRAS RNA G-quadruplex 5'-r(UGUGGGAGGGGCGGGUCUGGG)-3' (unknown origin) using RNA substrate incubated for 1 hr by ELISA method
[9] = Stabilization of NRAS RNA G-quadruplex 5'-r(UGUGGGAGGGGCGGGUCUGGG)-3' (unknown origin) at 10 uM
[10] = system: SK-MEL-2; assay: Downregulation of NRAS protein translation in human SK-MEL-2 cells incubated for 24 hrs by Western blot analysis; format: functional, cell-based; conditions: dose <= 1.5 µM
[11] = system: HEK293; assay: Binding affinity to NRAS RNA G-quadruplex 5'-r(UGUGGGAGGGGCGGGUCUGGG)-3' (unknown origin) transfected in HEK293 cells assessed as decrease in NRAS […] upto 1.5 uM incubated for 24 hrs by Dual luciferase reporter assay; format: functional, cell-based
[12] = system: SK-MEL-2; assay: Cytotoxicity against human SK-MEL-2 cells expressing Tet-on NRAS Q61R assessed as cell growth inhibition; format: functional, cell-based
[13] = system: SK-MEL-2; assay: Downregulation of phosphorylated ERK in human SK-MEL-2 cells expressing NRAS mutant at 1.5 uM by Western blot analysis; format: functional, cell-based; conditions: time <= 48.0 hrs, TDE = time-dependent effect
[14] = system: SK-MEL-2; assay: Induction of cell cycle arrest in human SK-MEL-2 cells assessed as accumulation at G2/M phase at 1.5 uM measured after 48 hrs by PI staining based analysis; format: functional
[15] = Binding affinity to NRAS RNA G-quadruplex 5'-r(UGUGGGAGGGGCGGGUCUGGG)-3' (unknown origin) by TO displacement assay
[16] = Toxicity in BALB/c mouse xenografted with human SK-MEL-2 cells assessed as change in viscera pattern at 1 mg/kg/day, ip administered for 30 days by HE staining based analysis; format: organism-based; conditions: in vivo, 720 h, time 30 day
[17] = Binding affinity to 3'-FAM-labeled to NRAS RNA G-quadruplex 5'-r(UGUGGGAGGGGCGGGUCUGGG)-3' (unknown origin) assessed as dissociation constant by fluorescence quenching assay
[18] = system: SK-MEL-2; assay: Cytotoxicity against human SK-MEL-2 cells assessed as inhibition of cell viability treated for 72 hrs measured after 24 hrs; format: functional, cell-based
[19] = system: RNA [UNDEFINED MUTATION]; assay: Binding affinity to NRAS RNA mutant G-quadruplex 5'-r(UGUAAGAGAAGCGAGUCUGAG)-3' (unknown origin) by TO displacement assay; format: nucleic-acid assay
[20] = system: SK-MEL-2; assay: Induction of autophagy in human SK-MEL-2 cells assessed as […] at 1.5 uM measured upto 48 hrs by Western bot analysis; format: functional, cell-based
[21] = system: SK-MEL-2; assay: Antitumor activity against human SK-MEL-2 cells xenografted in BALB/c nude mouse assessed as tumor growth inhibition at 1 mg/kg/day, ip by electronic caliper method; format: functional, organism-based; conditions: time 30.0 day, TDE = time-dependent effect
[22] = system: SK-MEL-2; assay: Downregulation of phosphorylated AKT in human SK-MEL-2 cells expressing NRAS mutant incubated for 48 hrs by Western blot analysis; format: functional, cell-based; conditions: dose <= 1.5 µM
[23] = system: SK-MEL-2; assay: Cytotoxicity against human SK-MEL-2 cells assessed as inhibition of cell viability treated for 72 hrs measured after 72 hrs; format: functional, cell-based; conditions: SK-MEL-2, 72 h
[24] = system: SK-MEL-2; assay: Cytotoxicity against human SK-MEL-2 cells expressing NRAS mutant assessed as cell growth inhibition incubated for 48 hrs by MTT assay; format: functional, cell-based; conditions: SK-MEL-2, 48 h
[25] = system: SK-MEL-2; assay: Downregulation of NRAS expression in human SK-MEL-2 cells xenografted in BALB/c nude mouse at 1 mg/kg/day, ip administered for 30 days by IHC analysis; format: functional, organism-based; conditions: time 30.0 day
[26] = system: SK-MEL-2; assay: Downregulation of KRAS protein level in human SK-MEL-2 cells upto 1.5 uM incubated for 48 hrs by Western blot analysis; format: functional, cell-based
[27] = system: SK-MEL-2; assay: Induction of apoptosis in human SK-MEL-2 cells assessed as late apoptotic cells at 1.5 uM measured after 24 hrs by PI/FITC Annexin V staining based flow cytometry; format: functional, cell-based
[28] = system: DNA; assay: Binding affinity to total DNA (unknown origin) by TO displacement assay; format: nucleic-acid assay
[29] = system: SK-MEL-2; assay: Suppression of NRAS protein translation in human SK-MEL-2 cells upto 1.5 uM incubated for 48 hrs by Western blot analysis; format: functional, cell-based
[30] = system: SK-MEL-2; assay: Cytotoxicity against human SK-MEL-2 cells overexpressing Tet-on NRAS Q61R assessed as cell growth inhibition; format: functional, cell-based
[31] = system: SK-MEL-2; assay: Downregulation of phosphorylated ERK in human SK-MEL-2 cells expressing NRAS mutant incubated for 48 hrs by Western blot analysis; format: functional, cell-based; conditions: dose <= 1.5 µM
[32] = system: SK-MEL-2; assay: Downregulation of phosphorylated mTOR in human SK-MEL-2 cells expressing NRAS mutant at 1.5 uM by Western blot analysis; format: functional, cell-based; conditions: time <= 48.0 hrs, TDE = time-dependent effect
[33] = system: SK-MEL-2; assay: Cytotoxicity against human SK-MEL-2 cells assessed as inhibition of cell viability treated for 48 hrs measured after 24 hrs; format: functional, cell-based
[34] = system: SK-MEL-2; assay: Antitumor activity against human SK-MEL-2 cells xenografted in BALB/c nude mouse assessed as reduction in tumor weight at 1 mg/kg/day, ip administered for 30 days by electronic caliper method; format: functional, organism-based; conditions: time 30.0 day
[35] = system: SK-MEL-2; assay: Cytotoxicity against human SK-MEL-2 cells assessed as inhibition of cell viability treated for 48 hrs measured after 48 hrs; format: functional, cell-based; conditions: SK-MEL-2, 48 h
[36] = Binding affinity to 5'-FAM-labeled to NRAS RNA G-quadruplex 5'-r(UGUGGGAGGGGCGGGUCUGGG)-3' (unknown origin) assessed as dissociation constant by fluorescence quenching assay
[37] = system: SK-MEL-2; assay: Cytotoxicity against human SK-MEL-2 cells upto 10 uM in presence of CQ; format: functional, cell-based
[38] = system: SK-MEL-2; assay: Cytotoxicity against human SK-MEL-2 cells upto 10 uM in presence of 3mA; format: functional, cell-based
[39] = system: SK-MEL-2; assay: Antiproliferative activity against human SK-MEL-2 cells assessed as inhibition of colony formation at 1.5 uM measured after 10 days by crystal violet staining based assay relative to control; format: functional; conditions: SK-MEL-2, 240 h, time 10 day
[40] = system: SK-MEL-2; assay: Cytotoxicity against human SK-MEL-2 cells expressing Tet-on NRAS Q61R assessed as cell growth inhibition in presence of doxycycline; format: functional, cell-based
[41] = system: SK-MEL-2; assay: Induction of cell cycle arrest in human SK-MEL-2 cells assessed as accumulation at S phase at 1.5 uM measured after 24 hrs by PI staining based analysis; format: functional
[42] = system: SK-MEL-2; assay: Antitumor activity against human SK-MEL-2 cells xenografted in BALB/c nude mouse assessed as tumor growth inhibition at 1 mg/kg/day, ip administered for 30 days relative to control; format: functional; conditions: SK-MEL-2, 720 h, time 30 day, read-out: TGI
[43] = system: SK-MEL-2; assay: Cytotoxicity against human SK-MEL-2 cells expressing NRAS mutant assessed as cell growth inhibition upto 50 uM measured for 12 to 96 hrs by MTT assay; format: functional, cell-based; conditions: time 12-96 hrs
[44] = system: SK-MEL-2; assay: Downregulation of phosphorylated mTOR in human SK-MEL-2 cells expressing NRAS mutant incubated for 48 hrs by Western blot analysis; format: functional, cell-based; conditions: dose <= 1.5 µM
[45] = system: RNA; assay: Binding affinity to total RNA (unknown origin) by TO displacement assay; format: nucleic-acid assay
[46] = system: SK-MEL-2; assay: Cytotoxicity against human SK-MEL-2 cells assessed as cell growth inhibition incubated for 24 hrs by MTT assay; format: functional, cell-based; conditions: SK-MEL-2, 24 h
[47] = system: SK-MEL-2; assay: Antitumor activity against human SK-MEL-2 cells xenografted in BALB/c nude mouse assessed as T/C ratio at 1 mg/kg/day, ip administered for 30 days relative to control; format: functional; conditions: time 30 day
[48] = system: SK-MEL-2; assay: Antiproliferative activity against human SK-MEL-2 cells assessed as cell growth inhibition incubated for 12 hrs by EdU assay; format: functional, cell-based; conditions: SK-MEL-2, 12 h
[49] = system: SK-MEL-2; assay: Antiproliferative activity against human SK-MEL-2 cells assessed as inhibition of cell survival upto 50 uM incubated for 24 to 96 hrs by MTT assay; format: functional, cell-based; conditions: time 24-96 hrs
[50] = system: SK-MEL-2; assay: Disruption of DHX36/NRAS RNA G-quadruplex 5'-r(UGUGGGAGGGGCGGGUCUGGG)-3' in human SK-MEL-2 cells at 1.5 uM incubated for 24 hrs by RNA Immunoprecipitation assay; format: cell-based
[51] = system: SK-MEL-2; assay: Downregulation of phosphorylated MEK in human SK-MEL-2 cells expressing NRAS mutant incubated for 48 hrs by Western blot analysis; format: functional, cell-based; conditions: dose <= 1.5 µM

Compound: NC1(c2ccc(-c3nc4ccn5c(=O)[nH]nc5c4cc3-c3ccccc3)cc2)CCC1 [MK-2206]
CI [1]: 0.5
CI [2]: 0.5

Activity [3]: Active
IC50 [6]: 1080 nM
IC50 [7]: 490 nM
IC50 [8]: 2400 nM
Activity [9]: inactive
EC50 [15]: 1600 nM
Kd [17]: 230 nM
Activity [19]: inactive
Activity [28]: inactive
Kd [36]: 490 nM
Activity [45]: Active
IC50 [48]: 2050 nM
Compound: CCCCCCCCN=c1ccn(CCCCCCCCCCn2ccc(=NCCCCCCCC)cc2)cc1.Cl.Cl [OCTENIDINE HYDROCHLORIDE]
Activity [4]: Non-Toxic
Activity [5]: Active
Activity [10]: Dose-Dependent Effect
Activity [11]: Active
IC50 [12]: 6300 nM
Activity [13]: Tde
Activity [14]: Active
Activity [16]: Non-Toxic
IC50 [18]: 480 nM
Activity [20]: Active
Activity [21]: Tde
Activity [22]: Dose-Dependent Effect
IC50 [23]: 460 nM
IC50 [24]: 1340 nM
Activity [25]: Active
Activity [26]: inactive
Activity [27]: Active
Activity [29]: Active
Activity [30]: Active
Activity [31]: Dose-Dependent Effect
Activity [32]: Tde
IC50 [33]: 2110 nM
Activity [34]: Active
IC50 [35]: 2100 nM
Activity [37]: Active
Activity [38]: Active
inhibition at 1.5 µM [39]: 100%
IC50 [40]: 12400 nM
Activity [41]: Active
inhibition in vivo at 1 mg/kg/day [42]: 52.4%
inhibition [43]: Active
Activity [44]: Dose-Dependent Effect
IC50 [46]: 2340 nM
T/C [47]: 38.5%
inhibition [49]: Active
Activity [50]: Active
Activity [51]: Dose-Dependent Effect
